Data taken from the NIST ThermoML archive (doi:10.1021/acs.jced.7b00704).

What was measured:
[1] = refractive index (Na D-line) (dimensionless); conditions: Liquid, Standard Abbe refractometry
[2] = Liquid, Ebulliometric method (Recirculating still)
[3] = refractive index (Na D-line) (dimensionless); xn = mol fraction of the nth substance listed; conditions: 293.15 K, 93 kPa, Liquid, Standard Abbe refractometry

CC(=O)OC(C)C [1-methylethyl ethanoate]
[1]
Conditions	refractive index
293.15 K, 93 kPa	1.3774
298.15 K, 101.33 kPa	1.3748

Conditions	vapor or sublimation pressure [kPa]
[2], 358.92 K	93.13

CC(=O)OC(C)C [1-methylethyl ethanoate] + COC(=O)OC
[3]
Conditions	refractive index
x1 = 0.0423	1.3693
x1 = 0.0899	1.3699
x1 = 0.183	1.371
x1 = 0.2918	1.3721
x1 = 0.4235	1.3733
x1 = 0.5026	1.374
x1 = 0.5726	1.3746
x1 = 0.6814	1.3754
x1 = 0.7285	1.3758
x1 = 0.7616	1.3759
x1 = 0.7915	1.3761
x1 = 0.8849	1.3767
x1 = 0.9449	1.3771
x1 = 1	1.3774

CC(=O)OCCC(C)C [3-methylbutyl ethanoate]
[1]
Conditions	refractive index
293.15 K, 93 kPa	1.4007
298.15 K, 101.33 kPa	1.39842

Conditions	vapor or sublimation pressure [kPa]
[2], 412.31 K	93.13

CC(=O)OCCC(C)C [3-methylbutyl ethanoate] + COC(=O)OC
[3]
Conditions	refractive index
x1 = 0.0369	1.3706
x1 = 0.0721	1.3724
x1 = 0.2004	1.378
x1 = 0.2231	1.3788
x1 = 0.3091	1.3821
x1 = 0.4027	1.3854
x1 = 0.4943	1.3883
x1 = 0.6064	1.3915
x1 = 0.7185	1.3945
x1 = 0.8312	1.3972
x1 = 0.9243	1.3992
x1 = 1	1.4007

CCCCOC(C)=O [butyl ethanoate]
[1]
Conditions	refractive index
293.15 K, 93 kPa	1.3943
298.15 K, 101.33 kPa	1.39175

Conditions	vapor or sublimation pressure [kPa]
[2], 396.21 K	93.13

CCCCOC(C)=O [butyl ethanoate] + COC(=O)OC
[3]
Conditions	refractive index
x1 = 0.0941	1.3721
x1 = 0.1143	1.3728
x1 = 0.1628	1.3743
x1 = 0.2495	1.377
x1 = 0.3203	1.379
x1 = 0.4375	1.3821
x1 = 0.5357	1.3846
x1 = 0.6438	1.3871
x1 = 0.7325	1.389
x1 = 0.7418	1.3893
x1 = 0.8819	1.3921
x1 = 0.9073	1.3925
x1 = 1	1.3943

COC(=O)OC [dimethyl carbonate] + CC(=O)OC(C)C
Conditions	refractive index
[3], x2 = 0	1.3688

COC(=O)OC [dimethyl carbonate] + CC(=O)OCCC(C)C
Conditions	refractive index
[3], x2 = 0	1.3688

COC(=O)OC [dimethyl carbonate] + CCCCOC(C)=O
Conditions	refractive index
[3], x2 = 0	1.3688

COC(=O)OC [dimethyl carbonate] + CCCOC(C)=O
Conditions	refractive index
[3], x2 = 0	1.3688

COC(=O)OC [dimethyl carbonate] + CCOC(C)=O
[3]
Conditions	refractive index
x2 = 0	1.3688
x2 = 0.0861	1.3693
x2 = 0.1154	1.3694
x2 = 0.2095	1.3698
x2 = 0.3017	1.3702
x2 = 0.3685	1.3704
x2 = 0.3952	1.3705
x2 = 0.4303	1.3707
x2 = 0.5094	1.371
x2 = 0.5642	1.3712
x2 = 0.6047	1.3713
x2 = 0.6964	1.3716
x2 = 0.8026	1.3719
x2 = 0.8912	1.3722
x2 = 0.9375	1.3723

COC(=O)OC [dimethyl carbonate] + COC(C)=O
Conditions	refractive index
[3], x2 = 0	1.3688

CCOC(C)=O [ethyl acetate] + COC(=O)OC
Conditions	refractive index
[3], x1 = 1	1.3724

COC(C)=O [methyl ethanoate] + COC(=O)OC
[3]
Conditions	refractive index
x1 = 0.0985	1.3682
x1 = 0.1427	1.3679
x1 = 0.2469	1.3673
x1 = 0.3243	1.3668
x1 = 0.3794	1.3665
x1 = 0.445	1.366
x1 = 0.5283	1.3654
x1 = 0.6548	1.3645
x1 = 0.7403	1.3639
x1 = 0.7976	1.3634
x1 = 0.8939	1.3625
x1 = 0.9548	1.362
x1 = 1	1.3615

CCCOC(C)=O [propyl ethanoate] + COC(=O)OC
[3]
Conditions	refractive index
x1 = 0.0846	1.3704
x1 = 0.1341	1.3714
x1 = 0.1705	1.372
x1 = 0.223	1.3731
x1 = 0.2896	1.3741
x1 = 0.3877	1.3757
x1 = 0.4374	1.3765
x1 = 0.4989	1.3775
x1 = 0.562	1.3784
x1 = 0.669	1.38
x1 = 0.7756	1.3815
x1 = 0.891	1.383
x1 = 0.9528	1.3838
x1 = 1	1.3843
